Source: US20250090461A1, “CELL-WALL BINDING PROTEIN SPECIFICALLY TARGETING CUTIBACTERIUM ACNES” (MASSACHUSETTS INSTITUTE OF TECHNOLOGY, priority 2022, published 2025)

Columns and labels:
Cutibacterium acnes [1] = experiment: Minimum Inhibitory Concentration of benzoyl peroxide on C. acnes; format: cell-based; conditions: OTC product containing 10% BPO used; FIG. 4
Source text: An OTC product containing 10% BPO was used in this experiment.
The advantage of SmartArrow is that it will deliver the active ingredients to where the bacteria reside. As a result, a much lower dosage of bioactive can be loaded in SmartArrow to achieve high killing of the bacteria compared to untargeted liposomes. As little as 0.002% BPO can achieve total killing of C. acnes (FIG. 4). Considering the BPO concentrations found in the retail market ranges from 2.5%-10%, which is ˜1000-fold higher than what is needed to kill the bacteria, it is not surprising to find most users of these retail products routinely suffer several side effects such as dry peeling skin. By using the SmartArrow approach, we can conservatively load 0.02% BPO into a liposome, which is 100× less than the retail products, to achieve total bacterial killing and reducing the side effects to a minimum.

[2] = tested on: Staphylococcus epidermidis strain PCI1200; experiment: Confocal microscopy binding of EGFP-tagged lysin to S. epidermidis; conditions: 2.5 mg/ml; FIG. 1 G1-3
Method: (§1) To check the binding spectrum of the engineered lysin SmartNovaC, 2.5 mg/ml of SmartNovaC was applied against four C. acnes strains, Enterococcus faecalis strain OG1 RF, Staphylococcus epidermidis strain PCI1200 and Pseudomonas aeruginosa strain PA14. Since SmartNovaC was cloned in a plasmid that would co-express the EGFP tag, the fluorescent lysin can be visualized using confocal microscopy.

[3] = tested on: Pseudomonas aeruginosa strain PA14; experiment: Confocal microscopy binding of EGFP-tagged lysin to P. aeruginosa; conditions: 2.5 mg/ml; FIG. 1 F1-3
Method: as §1

[4] = tested on: Enterococcus faecalis strain OG1 RF; experiment: Confocal microscopy binding of EGFP-tagged lysin to E. faecalis; conditions: 2.5 mg/ml; FIG. 1 E1-3
Method: as §1

Cutibacterium acnes [5] = experiment: Confocal microscopy binding of EGFP-tagged lysin to C. acnes; conditions: 2.5 mg/ml; four C. acnes strains (6919, 11828, 11827, HC038-PAI); FIG. 1
Method: as §1
To further examine whether SmartNovaC is the only lysin that binds specifically to C. acnes, the binding of NovaC and another lysin DukeC2Rap that were synthesized with EGFP co-expressed were tested. DukeC2Rap lysin was obtained as CBD of Doucette lysin targeting Propionibacterium freudenreichii species, which is from the same genus as C. acnes. The nucleotide and amino acid sequences of the DukeC2Rap are provided below.
NovaC and DukeC2Rap at concentrations of 2.5 mg/ml and 1.3 mg/ml, respectively, were tested for binding against two C. acnes strains.

| Molecule | BPO concentration achieving total killing of C. acnes (MIC) (Cutibacterium acnes [1]) | binding to S. epidermidis [2] | binding to P. aeruginosa PA14 [3] | binding to E. faecalis OG1RF [4] | binding to C. acnes (green fluorescence) (Cutibacterium acnes [5]) |
| --- | --- | --- | --- | --- | --- |
| O=C(OOC(=O)c1ccccc1)c1ccccc1 [BPO, benzoyl peroxide] | 0.002% | – | – | – | – |
| SmartNovaC (GSVNKLHHDVGVVQVQNGDLSKRVDALSWV) | – | could not bind | could not bind | could not bind | specific binding |
